Each structure is given as a SMILES string.

One assay has as its target T1, B-RAFV600E (Homo sapiens, UniProt P15056, V600E).
T1 construct: purchased Millipore, USA 14-557
Kind of assay: B-RAFV600E radiometric assay. The class given is biochemical. Conditions: read-out: Kinase assay B-Raf. The protocol:
Compound inhibition for B-RAFV600E was determined through radiometric assay using a BRAF enzyme (Catalog No. 14-557, Millipore, USA) and MEK-K97M protein as a substrate (Catalog No. 0785-0000-1, ProqQinase GmbH, Germany). The B-RAF kinase catalyzes the phosphorylation of MEK protein in the presence of gamma ATP (PLC-101, Jonaki, CCMB, Hyderabad), cold ATP and Mg^2+.
The phosphorylated protein product is detected by the scintillation counter Topcount® machine (Perkin Elmer). This assay has been adapted from the method previously reported by Yeh et al. (2007, Clinical Cancer Research; 13, 1576-1583). The assay measures the B-RAF mediated transfer of 32P from the gamma position of radiolabeled ATP onto MEK1-KD. The labeled phosphorylated protein was measured in MicroBeta® Trilux Counter (Perkin Elmer). The assay was validated with reference compounds RAF1 Kinase Inhibitor I and ZM 336372 inhibitor which are reported to be inhibitors of B-RAF enzyme (Lackey, 2000, Medicinal Chemistry Letters; 10(3):223-226; Kupcho, “Fluorescent High throughput kinase cascade assays for inhibitor characterization, RAF-MEK-ERK pathway, www.invitrogen.com, and Hall-Jackson, 1999, Chemical Biology; 6(8):559-568). B-RAF enzyme mixture (13 μL) was added to compound wells containing 2 μL of the NCE in 1% DMSO and incubated for 45 min at rt on a shaking incubator at 300 rpm. MEK-K97M (0.5 μg) and cold ATP to a final concentration of 5 μM, and hot ATP 0.1 μCi in a volume of 10 μL was added to each well and incubated for 2 h at rt on a shaking incubator at 300 rpm. The reaction was stopped by addition of […] (13 μL) containing ATP (1 mM: 495 μL 1N HCl and 5 μL 100 mM ATP). Aliquot (30 μL) was then transferred to the center of a 2 cm×2 cm P81 paper. P81 paper was washed 8×5 min each with ortho-phosphoric acid (0.5%). P81 papers are washed twice with acetone for […] Assay squares were allowed to dry for […] at 37° C. P81 paper are transferred to Optiplate™ (Perkin Elmer) and counted in a Topcount® counter (Perkin Elmer). Data was plotted against the compound concentration to generate dose-response curves and IC50 values were determined using a sigmoidal dose response curve fit GraphPad Prism® v5 software.

Another assay concerns pERK in A375 cells. Kind of assay: In Cell Western (ICW) assay, pERK in A375 cells. Type of assay: cell-based. To be noted: Homo sapiens, A-375, 3 h treatment. As for the experimental part:
Cell lines A375, A2058 and RKO obtained from the ATCC as provided above, were grown, and after attaining ˜80% confluency were trypsinized, centrifuged and resuspended in fresh media. The cells were seeded at the specified density (20,000 to 50,000) in a 96-well format black-well clear bottom plate (Corning) and incubated overnight at 37° C. in a 5% CO2 incubator. The next day, compound dilutions of test compounds were prepared in 100% DMSO followed by dilutions in respective media. Treatment of test compounds was performed for 3 h at 37° C. in 5% CO2 incubator. Following 3 h drug treatment, the conditional media was discarded and the cells were washed once with cPBS (PBS containing 0.1% magnesium chloride hexahydrate and 0.1% anhydrous calcium chloride) and fixed with 4% paraformaldehyde in cPBS for 1 h at rt. After fixing, the cells were given three washes using cPBST (cPBS containing 0.1% Triton™ X-100 reagent) and then blocked using blocking solution (5% skimmed milk powder or 5% BSA prepared in cPBST) for 2 h at rt with shaking at 300 rpm. The cells were again washed thrice with cPBST and incubated with primary antibody phospho-p44/42 MAPK(Erk1/2)(Thr202/204) antibody (Cell Signaling, Catalog # 9101L), phospho S6 ribosomal protein (Cell Signaling, Catalog #4858L), phospho AKT (Thr 308) (Cell Signaling, Catalog #9275) or phospho AKT (Ser 473) (Cell Signaling, Catalog #4060L) in specified dilutions (1:500-1:2500), prepared in respective blocking solutions, in a racker overnight at 4° C. The next day, the cells were washed with 1× Delfia® wash buffer (4×1 wash) and incubated with secondary antibody (Delfia®-Eu-N1 labeled anti-rabbit antibody; PerkinElmer, Catalog #AD0105; dilutions: 1:2000 to 1:6000 in Delfia® assay buffer (PerkinElmer, Catalog #1244-111)) for 2 h at rt in the dark at 300 rpm. The cells were then given four washes with 1× Delfia® wash buffer and incubated with Wallac Delfia® Enhancement solution (100 μL; PerkinElmer, Catalog #1244-105) for 20 min at rt in the dark at 300 rpm. The fluorescence emission was then read at 615 nm with an excitation wavelength of 340 nm using a Victor V5 Fluorometer (Perkin Elmer, US). The cells were then washed once with 1×cPBS and incubated with 100 μL of 0.5 mg/mL of Hoechst 33258 dye prepared in cPBS and read at 460 nm with 355 nm excitation, thereby evaluating the correction factor.
The % inhibition for the test compounds of formula (I) (new chemical entities (NCEs)) was calculated keeping DMSO control as 0% and the IC50 values were determined using sigmoidal dose response curve fit in GraphPad Prism® v5 software.

The next assay addresses T2, mTOR kinase (Homo sapiens, UniProt P42345).
T2 construct: purchased Millipore, US
Kind of assay: mTOR kinase TR-FRET assay. The class given is biochemical. The protocol:
Compound inhibition for mTOR kinase was determined by homogeneous TR-FRET assay using ULight-p70 S6K (Thr 389) peptide as substrate. mTOR enzyme (Millipore, US; […]) was used in the assay. The reaction buffer was HEPES (50 mM, pH 7.5), EGTA (1 mM), and MnCl2 (3 mM). Test compound was pre-incubated with mTOR for 30 min followed by 50 nM ULight-p70 S6K (Thr 389) peptide along with ATP (20 μM).
After incubating the reaction mixture for 30 min, Eu-labeled anti-phospho-substrate antibody (1 nM, Perkin Elmer, USA) was added. Fluorescence emission at […] was measured upon excitation at 340 nm. The compound dilution was carried out in 100% DMSO followed by a buffer dilution. The kinase reaction was incubated for 1 h at rt followed by the addition of substrate-ATP mix and incubated at rt for 1 h. The reaction was terminated by the addition of EDTA followed by the addition of detection mix. IC50 values were determined using a sigmoidal dose response curve fit, GraphPad Prism® v5 software.
On the technique in general: In TR-FRET formats the signal depends on donor and acceptor labels being close together.

T2 sequence (P42345 1362-2549 limits assumed): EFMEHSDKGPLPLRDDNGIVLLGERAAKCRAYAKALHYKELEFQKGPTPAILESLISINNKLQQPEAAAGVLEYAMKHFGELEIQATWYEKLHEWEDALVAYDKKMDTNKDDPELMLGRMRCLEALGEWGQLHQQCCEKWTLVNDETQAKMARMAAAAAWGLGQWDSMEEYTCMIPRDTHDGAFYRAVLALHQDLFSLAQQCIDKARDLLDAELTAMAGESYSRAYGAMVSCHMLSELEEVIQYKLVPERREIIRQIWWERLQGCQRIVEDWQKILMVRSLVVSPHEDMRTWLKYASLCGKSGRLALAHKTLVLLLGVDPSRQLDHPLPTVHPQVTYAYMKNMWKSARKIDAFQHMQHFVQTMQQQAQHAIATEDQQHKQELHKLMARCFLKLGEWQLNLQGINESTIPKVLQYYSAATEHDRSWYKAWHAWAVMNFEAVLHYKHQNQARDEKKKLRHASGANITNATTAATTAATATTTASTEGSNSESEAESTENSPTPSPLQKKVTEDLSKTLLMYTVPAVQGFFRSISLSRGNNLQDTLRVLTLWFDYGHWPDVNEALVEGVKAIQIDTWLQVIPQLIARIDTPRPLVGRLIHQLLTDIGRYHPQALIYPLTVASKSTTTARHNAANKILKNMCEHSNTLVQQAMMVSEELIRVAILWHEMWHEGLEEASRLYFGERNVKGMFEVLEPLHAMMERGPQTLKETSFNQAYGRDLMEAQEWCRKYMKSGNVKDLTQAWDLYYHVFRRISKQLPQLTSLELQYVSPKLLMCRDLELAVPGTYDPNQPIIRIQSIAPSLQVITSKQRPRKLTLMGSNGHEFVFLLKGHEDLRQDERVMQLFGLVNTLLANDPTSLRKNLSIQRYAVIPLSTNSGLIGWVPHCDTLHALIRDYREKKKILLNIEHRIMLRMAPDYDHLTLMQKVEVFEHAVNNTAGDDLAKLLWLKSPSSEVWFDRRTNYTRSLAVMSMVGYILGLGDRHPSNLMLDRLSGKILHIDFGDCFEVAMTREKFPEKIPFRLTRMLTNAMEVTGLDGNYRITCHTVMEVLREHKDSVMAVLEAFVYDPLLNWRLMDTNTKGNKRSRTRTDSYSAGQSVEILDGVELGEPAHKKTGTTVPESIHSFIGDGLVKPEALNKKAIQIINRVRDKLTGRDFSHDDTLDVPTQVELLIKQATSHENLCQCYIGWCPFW
T1 sequence (P15056 416-766 V600E limits assumed): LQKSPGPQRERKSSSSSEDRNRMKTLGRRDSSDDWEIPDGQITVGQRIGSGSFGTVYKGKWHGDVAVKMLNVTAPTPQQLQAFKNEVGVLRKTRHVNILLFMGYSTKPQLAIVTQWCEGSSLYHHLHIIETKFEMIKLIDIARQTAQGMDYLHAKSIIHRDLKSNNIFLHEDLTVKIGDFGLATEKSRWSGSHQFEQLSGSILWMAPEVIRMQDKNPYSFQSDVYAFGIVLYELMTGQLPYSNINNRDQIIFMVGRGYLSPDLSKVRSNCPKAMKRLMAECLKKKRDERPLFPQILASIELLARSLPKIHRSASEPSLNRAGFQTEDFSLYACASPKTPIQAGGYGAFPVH

As to `COc1cc(-c2cccc(NS(=O)(=O)c3c(F)cccc3F)c2F)cc2c(N3CCOCC3)nc(-c3ccc(NC(=O)NCCO)cc3)nc12` [Example 12, 2,6-difluoro-N-(2-fluoro-3-(2-(4-(3-(2-hydroxyethyl)ureido)phenyl)-8-methoxy-4-morpholinoquinazolin-6-yl)phenyl)benzenesulfonamide], the IC50 at B-RAFV600E is 100 to 1000 nM; in the assay on pERK in A375 cells, 1000 to 10000 nM; against mTOR kinase, 1 to 100 nM.
The corresponding values for `COc1cc(-c2cccc(NS(=O)(=O)c3c(F)cccc3F)c2F)cc2c(N3CCOCC3)nc(-c3cnc4[nH]ccc4c3)nc12` [Example 16, 2,6-difluoro-N-(2-fluoro-3-(8-methoxy-4-morpholino-2-(1H-pyrrolo[2,3-b]pyridin-5-yl)quinazolin-6-yl)phenyl)benzenesulfonamide] are 100 to 1000 nM, 100 to 1000 nM and 100 to 1000 nM.
Regarding `CNC(=O)Nc1ccc(-c2nc(N3CCOCC3)c3cc(-c4cccc(NS(=O)(=O)CCCF)c4F)cc(OC)c3n2)cc1` [Example 32, 3-fluoro-N-(2-fiuoro-3-(8-methoxy-2-(4-(3-methylureido)phenyl)-4-morpholinoquinazolin-6-yl)phenyl)propane-1-sulfonamide], the IC50 is 100 to 1000 nM at B-RAFV600E, 100 to 1000 nM in the assay on pERK in A375 cells and 1 to 100 nM at mTOR kinase.
In the case of `Nc1ccc(-c2nc(N3CCOCC3)c3cc(-c4cccc(NS(=O)(=O)CCCF)c4F)cc(OCC4CC4)c3n2)cn1` [Example 57, N-(3-(2-(6-aminopyridin-3-yl)-8-(cyclopropylmethoxy)-4-morpholinoquinazolin-6-yl)-2-fluorophenyl)-3-fluoropropane-1-sulfonamide], the IC50 at B-RAFV600E fell in the range of 1 to 100 nM; with pERK in A375 cells it was 1 to 100 nM; against mTOR kinase, 100 to 1000 nM.
For `Nc1ccc(-c2nc(N3CCOCC3)c3cc(-c4cccc(NS(=O)(=O)CCCF)c4F)cc(OCCO)c3n2)cn1` [Example 58, N-(3-(2-(6-aminopyridin-3-yl)-8-(2-hydroxyethoxy)-4-morpholinoquinazolin-6-yl)-2-fluorophenyl)-3-fluoropropane-1-sulfonamide], the IC50 fell in the range of 1 to 100 nM on B-RAFV600E, 100 to 1000 nM in the assay with pERK in A375 cells and 1 to 100 nM at mTOR kinase.
For `CCNc1ccc(-c2nc(N3CCOCC3)c3nc(-c4cccc(NS(=O)(=O)CCCF)c4F)ccc3n2)cn1` [Example 123, N-(3-(2-(6-(ethylamino)pyridin-3-yl)-4-morpholinopyrido[3,2-d]pyrimidin-6-yl)-2-fluorophenyl)-3-fluoropropane-1-sulfonamide], the IC50 on B-RAFV600E, with pERK in A375 cells and against mTOR kinase was 1 to 100 nM throughout.
`COc1cc(-c2cccc(NS(=O)(=O)CCCF)c2F)cc2c(N3CCOCC3)nc(-c3ccc(NC(C)=O)cc3)nc12` [Example 125, N-(4-(6-(2-fluoro-3-(3-fluoropropylsulfonamido)phenyl)-8-methoxy-4-morpholinoquinazolin-2-yl)phenyl)acetamide]: the IC50 on B-RAFV600E lay within 100 to 1000 nM; in the assay with pERK in A375 cells, 1 to 100 nM; at mTOR kinase, 1 to 100 nM.
For `CCOc1cc(-c2cccc(NS(=O)(=O)CCCF)c2F)cc2c(N3CCOC[C@H]3C)nc(-c3cnc(NC)nc3)nc12` [Example 138, (R)-N-(3-(8-ethoxy-2-(2-(methylamino)pyrimidin-5-yl)-4-(3-methylmorpholino)quinazolin-6-yl)-2-fluorophenyl)-3-fluoropropane-1-sulfonamide], the IC50 was 1 to 100 nM on B-RAFV600E and 100 to 1000 nM against mTOR kinase.
Take `C[C@@H]1COCCN1c1nc(-c2cnc(N)nc2)nc2c(OCCF)cc(-c3cccc(NS(=O)(=O)CCCF)c3F)cc12` [Example 141, (R)-N-(3-(2-(2-aminopyrimidin-5-yl)-8-(2-fluoroethoxy)-4-(3-methylmorpholino)quinazolin-6-yl)-2-fluorophenyl)-3-fluoropropane-1-sulfonamide]: the IC50 is 1 to 100 nM at B-RAFV600E and 100 to 1000 nM against mTOR kinase.
In the same order, the values of `C[C@@H]1COCCN1c1nc(-c2cnc(N)c(F)c2)nc2c(OCCF)cc(-c3cccc(NS(=O)(=O)CCCF)c3F)cc12` [Example 142, (R)-N-(3-(2-(6-amino-5-fluoropyridin-3-yl)-8-(2-fluoroethoxy)-4-(3-methylmorpholino)quinazolin-6-yl)-2-fluorophenyl)-3-fluoropropane-1-sulfonamide] are 1 to 100 nM and 100 to 1000 nM.
As to `COc1cc(-c2cccc(NS(=O)(=O)CCCF)c2F)cc2c(N3CCOC[C@H]3C)nc(-c3cnc(N)cn3)nc12` [Example 143, (R)-N-(3-(2-(5-aminopyrazin-2-yl)-8-methoxy-4-(3-methylmorpholino)quinazolin-6-yl)-2-fluorophenyl)-3-fluoropropane-1-sulfonamide], the IC50 at B-RAFV600E was in the range of 1 to 100 nM; on mTOR kinase, 100 to 1000 nM.
`COc1cc(-c2cccc(NS(=O)(=O)CCCF)c2F)cc2c(N3CCOC[C@H]3C)nc(-c3cnc(N)cc3C#N)nc12` [Example 144, (R)-N-(3-(2-(6-amino-4-cyanopyridin-3-yl)-8-methoxy-4-(3-methylmorpholino)quinazolin-6-yl)-2-fluorophenyl)-3-fluoropropane-1-sulfonamide]: the figures for the IC50 on B-RAFV600E and on mTOR kinase were 1 to 100 nM and 100 to 1000 nM, respectively.

(Values after patent publication US9499495B2, “Quinazolines and azaquinazolines as dual inhibitors of RAS/RAF/MEK/ERK and PI3K/AKT/PTEN/mTOR pathways” (Asana Biosciences, LLC, priority 2013, dated 2016).)
